{
  "source": "patent US20220409643A1",
  "about": "“ROR Gamma T Inhibitors and Topical Uses Thereof” (Dermira, inc., priority 2019, published 2022)",
  "data": [
    {"test_system": "IL17A", "test": "skin Resident Immune Cell Assay (sRICA), Th17 model, IL17A protein in media", "format": "cell-based", "details": "100 uM solution in 1% DMSO/OD applied topically to human skin; media collected 24 hours after Th17 activation", "method": "(§1) A skin Resident Immune Cell Assay (sRICA) was used to test compounds for reduction of IL-17A protein upregulation in the Th17 sRICA model. In this model, human surgical skin waste was cultured in a transwell system, with the dermis in contact with cell culture media and the stratum corneum exposed to air. To perform the assay, each human skin sample was defatted and dermatomed to 750μm. Next, 8 mm punch biopsies were obtained and placed in a membrane transwell. The transwells were inserted into culture wells with complete media, and a cocktail of cytokines and antibodies were added to promote skin resident immune cell polarization.\n(§2) RORγt inhibitors were prepared as a 100 uM solution in 1% DMSO/OD. […] of the prepared topical solution was applied to sRICA wells prepared for topical drug evaluation. Drugs were allowed to penetrate the skin overnight, for up to 24 hours prior to Th17 activation. Media was collected 24 hours after Th17 activation for IL17A protein assessment. IL17A protein was evaluated using the Quanterix IL17A detection kit on the SiMoA platform (via CRO Translational Biosciences). There was significant upregulation of IL17A with Th17 activation. Each study was normalized to the % max of IL17A production (i.e. the average IL17A concentration of Th17 activated skin alone) was set to 100%, all other values (untreated no activation and treated samples) were obtained as a percentage of this. […]", "units": {"inhibition at 100 µM": "%"}, "values": [
      {"smiles": "COc1ccc2c(n1)CCN(C(=O)Cc1cc(O)no1)[C@H]2C(=O)Nc1cc(F)c2c(c1)CCC2(C)C", "note": "[(5R)-N-(7-fluoro-1,1-dimethyl-2,3-dihydro-1H-inden-5-yl)-6-((3-hydroxy-1,2-oxazol-5-yl)acetyl)-2-methoxy-5,6,7,8-tetrahydro-1,6-naphthyridine-5-carboxamide]", "inhibition at 100 µM": 19.2},
      {"smiles": "CC(C)n1c(=O)n(CC2CC2)c(=O)c2cc(NC(=O)N3CCC[C@@H](NC(=O)c4ccccc4)C3)ccc21", "note": "[(3R)-3-(benzoylamino)-N-(3-(cyclopropylmethyl)-1-isopropyl-2,4-dioxo-1,2,3,4-tetrahydroquinazolin-6-yl)piperidine-1-carboxamide]", "inhibition at 100 µM": 53.2},
      {"smiles": "COCC(C)(C)c1c(F)cc(NC(=O)[C@H]2c3ccc(OC)cc3CCN2C(=O)Cc2cc(O)no2)cc1F", "note": "[(1R)-N-(3,5-difluoro-4-(1-methoxy-2-methylpropan-2-yl)phenyl)-6-methoxy-2-((3-hydroxy-1,2-oxazol-5-yl)acetyl)-1,2,3,4-tetrahydro-isoquinoline-1-carboxamide]", "inhibition at 100 µM": 46.3},
      {"smiles": "COc1ccc2c(c1)CCN(C(=O)Cc1cc(O)no1)[C@H]2C(=O)Nc1ccc(C(C)(C)C)c(F)c1", "note": "[(1R)-N-(4-tert-butyl-3-fluorophenyl)-2-((3-hydroxy-1,2-oxazol-5-yl)acetyl)-6-methoxy-1,2,3,4-tetrahydroisoquinoline-1-carboxamide]", "inhibition at 100 µM": 23.6},
      {"smiles": "COc1ccc2c(c1)CCN(C(=O)Cc1cc(O)no1)[C@H]2C(=O)Nc1cc(F)c(C(C)(C)COCC(F)F)c(F)c1", "note": "[(1R)-N-(4-(1-(2,2-difluoroethoxy)-2-methylpropan-2-yl)-3,5-difluorophenyl)-2-((3-hydroxy-1,2-oxazol-5-yl)acetyl)-6-methoxy-1,2,3,4-tetrahydro-isoquinoline-1-carboxamide]", "inhibition at 100 µM": 39.3}
    ]},
    {"test_system": "IL17A", "test": "skin Resident Immune Cell Assay (sRICA), Th17 model, IL17A protein in media", "format": "cell-based", "details": "Homo sapiens, 24 h, 100 uM solution in 1% DMSO/OD applied topically to human skin; media collected 24 hours after Th17 activation", "method": "as §1, §2", "units": {"inhibition at 100 µM": "%"}, "values": [
      {"smiles": "CCn1c(=O)n(CCCOC)c(=O)c2cc(NC(=O)CC(C)CC(=O)Nc3ccc(C#N)c(Cl)c3)ccc21", "note": "(stereo not drawn) [N-(3-chloro-4-cyanophenyl)-N′-(1-ethyl-3-(3-methoxypropyl)-2,4-dioxo-1,2,3,4-tetrahydroquinazolin-6-yl)-3-methylpentanediamide]", "inhibition at 100 µM": 60.8},
      {"smiles": "COCc1ccc([C@@H](NC(=O)CNC(C)=O)C(=O)Nc2ccc([Si](C)(C)C)c(F)c2)cc1", "inhibition at 100 µM": 48.8},
      {"smiles": "CCn1c2ccccc2c2cc(C(=O)NCC(C)CC(=O)Nc3ccc(C#N)c(Cl)c3)ccc21", "note": "(stereo not drawn) [N-{4-[(3-chloro-4-cyanophenyl)amino]-2-methyl-4-oxobutyl}-9-ethyl-9H-carbazole-3-carboxamide]", "inhibition at 100 µM": 24.5},
      {"smiles": "COCc1ccc2c(c1)CCN(C(=O)c1cc(O)no1)[C@H]2C(=O)Nc1ccc([Si](C)(C)C)c(F)c1", "note": "[(1R)-N-(3-fluoro-4-(trimethylsilyl)phenyl)-2-((3-hydroxy-1,2-oxazol-5-yl)carbonyl)-6-methoxymethyl-1,2,3,4-tetrahydroisoquinoline-1-carboxamide]", "inhibition at 100 µM": 62.2},
      {"smiles": "COCc1ccc([C@@H](NC(=O)[C@@H]2CNC(=O)C2)C(=O)Nc2cc(F)c([Si](C)(C)C)c(F)c2)cc1", "note": "[(3S)-N-((1R)-2-((3,5-difluoro-4-(trimethylsilyl)phenyl)amino)-1-(4-(methoxymethyl)phenyl)-2-oxoethyl)-5-oxopyrrolidine-3-carboxamide]", "inhibition at 100 µM": 23.6},
      {"smiles": "Cn1ncc2cc([C@@H](NC(=O)[C@@H]3CNC(=O)C3)C(=O)Nc3ccc([Si](C)(C)C)c(F)c3)ccc21", "note": "[drawing 79, (3S)-N-((1R)-2-((3-fluoro-4-(trimethylsilyl)phenyl)amino)-1-(1-methyl-1H-indazol-5-yl)-2-oxoethyl)-5-oxopyrrolidine-3-carboxamide]", "inhibition at 100 µM": 45.7},
      {"smiles": "COCc1ccc([C@@H](NC(=O)C2CNC(=O)C2)C(=O)Nc2ccc([Si](C)(C)C)c(F)c2)cc1", "note": "(stereo in doubt) [(3R)-N-((1R)-2-((3-fluoro-4-(trimethylsilyl)phenyl)amino)-1-(4-(methoxymethyl)phenyl)-2-oxoethyl)-5-oxopyrrolidine-3-carboxamide]", "inhibition at 100 µM": 75.7}
    ]}
  ]
}
